Results on 39 molecules are retold here after patent US20150141381A1, “TETRACYCLINE COMPOUNDS HAVING TARGET THERAPEUTIC ACTIVITIES” (Paratek Pharmaceuticals, Inc., priority 2001, published 2015).

Assay [1] deals with E. coli mL308 225. Briefly: In Vitro Anti-Bacterial Activity Assay (MIC), gram negative. Format: cell-based. To be noted: for MIC: Escherichia coli, ML308225, 18 h.
In assay [2] the test system is S. aureus RN450. Description: In Vitro Anti-Bacterial Activity Assay (MIC), gram positive. Format: cell-based. To be noted: for MIC: Staphylococcus aureus, RN450, 18 h.
Where [3] appears, read: MIC class, Table 3, read-out: Antibiotic Activity Gram −.
The mark [4] stands for this setting: MIC class, Table 3, read-out: Antibiotic Activity Gram +.
The mark [5] stands for this setting: gram negative bacteria, read-out: Antibiotic Activity Gram − (MIC).
The mark [6] stands for this setting: gram positive bacteria, read-out: Antibiotic Activity Gram + (MIC).

Where two headings read alike, the source gives them in different places.

In the case of `CCOc1ccc(-c2ccc(O)c3c2C[C@H]2C[C@H]4[C@H](N(C)C)C(O)=C(C(N)=O)C(=O)[C@@]4(O)C(O)=C2C3=O)cc1CN` [GJ], the MIC in assay [1] (setting [3]) and in assay [2] (setting [4]) was below 4 µg/mL throughout.

For `CN(C)c1cc(NC(=O)Oc2ccc(Cl)cc2)c(O)c2c1C[C@H]1C[C@H]3[C@H](N(C)C)C(O)=C(C(N)=O)C(=O)[C@@]3(O)C(O)=C1C2=O` [DP], the MIC in assay [1] (read-out: Antibiotic Activity Gram −) and in assay [2] (read-out: Antibiotic Activity Gram +) was above 4 µg/mL throughout.

For the molecule `CN(C)c1cc(CN2CCCC2)c(O)c2c1C[C@H]1C[C@H]3[C@H](N(C)C)C(O)=C(C(N)=O)C(=O)[C@@]3(O)C(O)=C1C2=O`, the MIC is above 4 µg/mL in assay [1] (setting [5]) and below 4 µg/mL in assay [2] (setting [6]).

For the molecule `CC(=O)c1ccc(-c2ccc3c(c2O)C(=O)C2=C(O)[C@]4(O)C(=O)C(C(N)=O)=C(O)[C@@H](N(C)C)[C@@H]4[C@@H](O)[C@@H]2[C@H]3C)cc1`, the MIC in assay [1] (setting [5]) and in assay [2] (setting [6]) was below 4 µg/mL throughout.

As to `COCC(=O)Nc1ccc(-c2ccc(O)c3c2C[C@H]2C[C@H]4[C@H](N(C)C)C(O)=C(C(N)=O)C(=O)[C@@]4(O)C(O)=C2C3=O)cc1`, the MIC in assay [1] (setting [5]) and in assay [2] (setting [6]) was below 4 µg/mL throughout.

On to `COc1ccc(CNCC(F)(F)F)cc1-c1ccc(O)c2c1C[C@H]1C[C@H]3C(N(C)C)C(O)=C(C(N)=O)C(=O)[C@@]3(O)C(O)=C1C2=O` (stereo partly drawn) [NQ], for which the MIC in assay [1] (setting [3]) was above 4 µg/mL; in assay [2] (setting [4]) it was below 4 µg/mL.

Turning to `Cc1cc(-c2ccc(O)c3c2C[C@H]2C[C@H]4[C@H](N(C)C)C(O)=C(C(N)=O)C(=O)[C@@]4(O)C(O)=C2C3=O)cc(C)n1` [PD], the MIC in assay [1] (setting [3]) and in assay [2] (setting [4]) was below 4 µg/mL in each case.

On to `CCc1cc(C(C)(C)C)c(O)c2c1C[C@H]1C[C@H]3[C@H](N(C)C)C(O)=C(C(=O)NC(C)(C)C)C(=O)[C@@]3(O)C(O)=C1C2=O`, for which the MIC in assay [1] (setting [5]) was above 4 µg/mL; in assay [2] (setting [6]) it was below 4 µg/mL.

On to `CC(=O)Nc1ccc(-c2ccc(O)c3c2C[C@H]2C[C@H]4[C@H](N(C)C)C(O)=C(C(N)=O)C(=O)[C@@]4(O)C(O)=C2C3=O)cn1`, for which the values for the MIC in assay [1] (setting [5]) and in assay [2] (setting [6]) were above 4 µg/mL and below 4 µg/mL, respectively.

In the case of `CN(C)c1cc(CNC(=O)[C@@H]2CCCN2C)c(O)c2c1C[C@H]1C[C@H]3[C@H](N(C)C)C(O)=C(C(N)=O)C(=O)[C@@]3(O)C(O)=C1C2=O`, the MIC is above 4 µg/mL in assay [1] (setting [5]) and below 4 µg/mL in assay [2] (setting [6]).

For the molecule `CN(C)c1cc(CNCc2cc(F)c(F)c(F)c2)c(O)c2c1C[C@H]1C[C@H]3[C@H](N(C)C)C(O)=C(C(N)=O)C(=O)[C@@]3(O)C(O)=C1C2=O`, the MIC in assay [1] (setting [5]) and in assay [2] (setting [6]) was below 4 µg/mL throughout.

For the molecule `CCCCOc1cccc2c1C(=O)C1=C(O)[C@]3(O)C(=O)C(C(N)=O)=C(O)[C@@H](N(C)C)[C@@H]3C[C@@H]1C2`, the MIC in assay [1] (setting [5]) and in assay [2] (setting [6]) was above 4 µg/mL each time.

Regarding `CC(NNC(N)=O)c1ccc(O)c2c1C[C@H]1C[C@H]3[C@H](N(C)C)C(O)=C(C(N)=O)C(=O)[C@@]3(O)C(O)=C1C2=O` (stereo partly drawn), the MIC in assay [1] (setting [5]) was above 4 µg/mL; in assay [2] (setting [6]), below 4 µg/mL.

On to `COc1ccc(-c2ccc(O)c3c2C[C@H]2C[C@H]4[C@H](N(C)C)C(O)=C(C(N)=O)C(=O)[C@@]4(O)C(O)=C2C3=O)cc1CN` [HI], for which the MIC in assay [1] (setting [3]) was above 4 µg/mL; in assay [2] (setting [4]), below 4 µg/mL.

As for `CN(C)c1cc(CNC(=O)Nc2ccc(OC(F)(F)F)cc2)c(O)c2c1C[C@H]1C[C@H]3[C@H](N(C)C)C(O)=C(C(N)=O)C(=O)[C@@]3(O)C(O)=C1C2=O` [FO], the results for the MIC in assay [1] (setting [3]) and in assay [2] (setting [4]) were above 4 µg/mL and below 4 µg/mL, respectively.

Regarding `CN(C)C1C(O)=C(C(N)=O)C(=O)[C@@]2(O)C(O)=C3C(=O)c4c(O)ccc(-c5ccc(CNCc6ccccc6)o5)c4C[C@H]3C[C@@H]12` (stereo partly drawn) [LL], the MIC in assay [1] (setting [3]) and in assay [2] (setting [4]) was below 4 µg/mL in each case.

Turning to `CN(C)[C@@H]1C(O)=C(C(N)=O)C(=O)[C@@]2(O)C(O)=C3C(=O)c4c(O)c(CN)cc(-c5cccc([N+](=O)O)c5)c4C[C@H]3C[C@@H]12` [DE], the MIC is above 4 µg/mL in assay [1] (setting [3]) and below 4 µg/mL in assay [2] (setting [4]).

On to `CN(C)[C@H]1C(O)=C(C(N)=O)C(=O)[C@@]2(O)C(O)=C3C(=O)c4c(O)ccc(-c5ccc(CN6CCCC6)o5)c4C[C@H]3C[C@@H]12` [LM], for which the MIC in assay [1] (setting [3]) and in assay [2] (setting [4]) was below 4 µg/mL throughout.

For the molecule `CN(C)[C@@H]1C(O)=C(C(N)=O)C(=O)[C@@]2(O)C(O)=C3C(=O)c4c(O)ccc(-c5ccc(CNc6cccnc6)cc5)c4C[C@H]3C[C@@H]12`, the MIC was above 4 µg/mL in assay [1] (setting [5]) and below 4 µg/mL in assay [2] (setting [6]).

Take `CCc1cc(CN2CCC(F)(F)CC2)c(O)c2c1C[C@H]1C[C@H]3[C@H](N(C)C)C(O)=C(C(N)=O)C(=O)[C@@]3(O)C(O)=C1C2=O` [drawing 3696]: in assay [1] (gram negative bacteria), the “Antibiotic Activity Gram − (MIC)” value is recorded as “** (compounds with MIC less than or equal to 4 μg/ml are indicated with **)”. In assay [2] (gram positive bacteria), the “Antibiotic Activity Gram + (MIC)” value is on record as “** (compounds with MIC less than or equal to 4 μg/ml are indicated with **)”.

For `CN(C)[C@@H]1C(O)=C(C(N)=O)C(=O)[C@@]2(O)C(O)=C3C(=O)c4c(O)ccc(-c5ccc(CN6CCCC6)o5)c4C[C@H]3C[C@@H]12` [GY], the MIC in assay [1] (setting [3]) and in assay [2] (setting [4]) was below 4 µg/mL each time.

`CN1CCCC1=Nc1ccc(-c2ccc(O)c3c2C[C@H]2C[C@H]4[C@@H](N(C)C)C(O)=C(C(N)=O)C(=O)[C@@]4(O)C(O)=C2C3=O)cc1` [GP]: the MIC in assay [1] (setting [3]) was above 4 µg/mL; in assay [2] (setting [4]) it was below 4 µg/mL.

For the molecule `Cc1ccnc(-c2ccc(O)c3c2C[C@H]2C[C@H]4[C@H](N(C)C)C(O)=C(C(N)=O)C(=O)[C@@]4(O)C(O)=C2C3=O)c1`, the MIC in assay [1] (setting [5]) and in assay [2] (setting [6]) was below 4 µg/mL in each case.

`CCOC(=O)COC1=C(C(N)=O)C(=O)[C@@]2(O)C(O)=C3C(=O)c4c(O)cccc4C[C@H]3C[C@H]2[C@@H]1N(C)C` [OR]: the MIC in assay [1] (setting [3]) and in assay [2] (setting [4]) was above 4 µg/mL in each case.

With `CCOC(=O)Nc1cc(N(C)C)c2c(c1O)C(=O)C1=C(O)[C@]3(O)C(=O)C(C(N)=O)=C(O)[C@@H](N(C)C)[C@@H]3C[C@@H]1C2` [drawing 3362], the MIC in assay [1] (setting [5]) and in assay [2] (setting [6]) was below 4 µg/mL throughout.

`CN(C)[C@@H]1C(O)=C(C(N)=O)C(=O)[C@@]2(O)C(O)=C3C(=O)c4c(O)ccc(-c5ccc(CN6CCCC6)cc5)c4C[C@H]3C[C@@H]12` [JZ]: the MIC in assay [1] (setting [3]) and in assay [2] (setting [4]) was below 4 µg/mL in each case.

With `CN(C)c1cc(C#CC2=CCCCC2)c(O)c2c1C[C@H]1C[C@H]3[C@H](N(C)C)C(O)=C(C(N)=O)C(=O)[C@@]3(O)C(O)=C1C2=O`, the MIC in assay [1] (MIC class, Table 3 (Continued), read-out: Gram− activity) was below 4 µg/mL; in assay [2] (MIC class, Table 3 (Continued), read-out: Gram+ activity) it was below 4 µg/mL.

As for `CC(=O)Nc1ccc(C#Cc2ccc(O)c3c2C[C@H]2C[C@H]4[C@H](N(C)C)C(O)=C(C(N)=O)C(=O)[C@@]4(O)C(O)=C2C3=O)cc1` [CO], the values for the MIC in assay [1] (setting [3]) and in assay [2] (setting [4]) were above 4 µg/mL and below 4 µg/mL, respectively.

`CN(C)c1ccc(-c2cc(CN)c(O)c3c2C[C@H]2C[C@H]4[C@@H](N(C)C)C(O)=C(C(N)=O)C(=O)[C@@]4(O)C(O)=C2C3=O)cc1` [HQ]: the figures for the MIC in assay [1] (setting [3]) and in assay [2] (setting [4]) were above 4 µg/mL and below 4 µg/mL, respectively.

With `CN(C)c1cc(CNCCC(F)(F)F)c(O)c2c1C[C@H]1C[C@H]3[C@H](N(C)C)C(O)=C(C(N)=O)C(=O)[C@@]3(O)C(O)=C1C2=O` [drawing 3671], the MIC in assay [1] (setting [5]) and in assay [2] (setting [6]) was below 4 µg/mL in each case.

On to `C[C@H]1c2ccc(CNCC(C)(C)C)c(O)c2C(=O)C2=C(O)[C@]3(O)C(=O)C(C(N)=O)=C(O)[C@@H](N(C)C)[C@@H]3[C@@H](O)[C@@H]21` [drawing 3661], for which the MIC in assay [1] (setting [5]) and in assay [2] (setting [6]) was above 4 µg/mL each time.

On to `CN(C)[C@@H]1C(O)=C(C(N)=O)C(=O)[C@@]2(O)C(O)=C3C(=O)c4c(O)ccc(-c5ccc(CNCC(F)(F)F)cc5)c4C[C@H]3C[C@@H]12` [drawing 3505], for which the MIC in assay [1] (setting [5]) and in assay [2] (setting [6]) was below 4 µg/mL each time.

For the molecule `CN(C)[C@@H]1C(O)=C(C(N)=O)C(=O)[C@@]2(O)C(O)=C3C(=O)c4c(O)ccc(C#Cc5ccc(N)cc5)c4C[C@H]3C[C@@H]12` [BE], the MIC was above 4 µg/mL in assay [1] (setting [3]) and below 4 µg/mL in assay [2] (setting [4]).

For the molecule `CN1CCC(NCc2ccc3c(c2O)C(=O)C2=C(O)[C@]4(O)C(=O)C(C(N)=O)=C(O)[C@@H](N(C)C)[C@@H]4C[C@@H]2C3)CC1`, the MIC in assay [1] (setting [5]) and in assay [2] (setting [6]) was above 4 µg/mL each time.

Regarding `CN(C)[C@@H]1C(O)=C(C(N)=O)C(=O)[C@@]2(O)C(O)=C3C(=O)c4c(O)ccc(-c5ccc(/C=N/O)o5)c4C[C@H]3C[C@@H]12` [NA], the MIC in assay [1] (setting [3]) and in assay [2] (setting [4]) was below 4 µg/mL throughout.

`C[C@H]1c2ccc(-c3ccc(C=O)c4ccccc34)c(O)c2C(=O)C2=C(O)[C@]3(O)C(=O)C(C(N)=O)=C(O)[C@@H](N(C)C)[C@@H]3[C@@H](O)[C@@H]21`: the MIC in assay [1] (setting [5]) and in assay [2] (setting [6]) was below 4 µg/mL throughout.

Take `CN(C)[C@@H]1C(O)=C(C(N)=O)C(=O)[C@@]2(O)C(O)=C3C(=O)c4c(O)ccc(-c5ccc(NC(=O)OCCF)cc5)c4C[C@H]3C[C@@H]12`: the MIC is above 4 µg/mL in assay [1] (setting [5]) and below 4 µg/mL in assay [2] (setting [6]).

Regarding `CCC(C)CNCc1ccc(O)c2c1C[C@H]1C[C@H]3[C@H](N(C)C)C(O)=C(C(N)=O)C(=O)[C@@]3(O)C(O)=C1C2=O` (stereo partly drawn) [KE], the MIC in assay [1] (setting [3]) and in assay [2] (setting [4]) was below 4 µg/mL in each case.

Consider `C[C@H]1c2ccc(CNCCC(F)(F)F)c(O)c2C(=O)C2=C(O)[C@]3(O)C(=O)C(C(N)=O)=C(O)[C@@H](N(C)C)[C@@H]3[C@@H](O)[C@@H]21`, for which the MIC in assay [1] (setting [5]) and in assay [2] (setting [6]) was below 4 µg/mL in each case.
